Here are results for 55 compounds from ChEMBL document CHEMBL5365420, “Kinetics, Thermodynamics, and Structural Effects of Quinoline-2-Carboxylates, Zinc-Binding Inhibitors of New Delhi Metallo-β-lactamase-1 Re-sensitizing Multidrug-Resistant Bacteria for Carbapenems” (J Med Chem, 2023).

In assay [1] the target is Metallo-beta-lactamase type 2 (Bacteria, UniProt C7C422).
Description: Inhibition of C-terminal 6His-tagged full length NDM-1 (unknown origin) expressed in Escherichia coli BL21-DE3 using nitrocefin as substrate incubated for 15 mins followed by substrate addition by absorbance based microplate reader analysis
The target of assay [2] is Carbonic anhydrase 2 (Homo sapiens) (UniProt P00918). Nature of the assay: Inhibition of human CA2 at 10 uM using pNPA as substrate preincubated for 15 mins followed by substrate by absorbance based analysis relative to control.
Assay [3] addresses Histone deacetylase 1 (Homo sapiens) (UniProt Q13547). Nature of the assay: Inhibition of C-terminal 6His/FLAG-tagged human recombinant full-length HDAC1 (1 to 482(end) residues) at 10 uM using Boc-Lys-(Ac)-AMC as substrate incubated for 10 mins followed by substrate addition measured after 1 hr by fluorescence based analysis relative to control. Particulars: time 70.0 min.
Assay [4] deals with T1, 72 kDa type IV collagenase (Homo sapiens, UniProt P08253). Nature of the assay: Inhibition of human recombinant MMP-2 CD at 10 uM using OMNIMMP as substrate incubated for 30 mins by fluorescence based analysis relative to control.
Target sequence in this assay (P08253 110-660 limits assumed): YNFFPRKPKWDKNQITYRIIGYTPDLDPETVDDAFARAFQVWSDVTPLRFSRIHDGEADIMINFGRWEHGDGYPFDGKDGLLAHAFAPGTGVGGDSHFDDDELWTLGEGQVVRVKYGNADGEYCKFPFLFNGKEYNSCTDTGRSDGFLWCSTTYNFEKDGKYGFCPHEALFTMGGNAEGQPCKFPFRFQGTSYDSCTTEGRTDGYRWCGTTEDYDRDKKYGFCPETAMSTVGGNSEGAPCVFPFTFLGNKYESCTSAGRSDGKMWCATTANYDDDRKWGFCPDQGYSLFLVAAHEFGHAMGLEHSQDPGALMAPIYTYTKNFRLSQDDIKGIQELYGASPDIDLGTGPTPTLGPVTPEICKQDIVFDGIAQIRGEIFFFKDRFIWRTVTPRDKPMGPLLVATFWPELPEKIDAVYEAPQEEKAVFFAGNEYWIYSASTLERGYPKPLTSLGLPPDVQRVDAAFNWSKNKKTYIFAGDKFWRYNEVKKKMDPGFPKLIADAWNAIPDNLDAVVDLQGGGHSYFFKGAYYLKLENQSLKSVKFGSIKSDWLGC
Assay [5] is described as follows: Inhibition of IMP-1 (unknown origin) expressed in Escherichia coli BL21-DE3 incubated for 15 mins by absorbance based microplate reader analysis. Also on record: species or system Bacteria.
Assay [6] has as its target T1, 72 kDa type IV collagenase. Nature of the assay: Binding affinity to human recombinant MMP-2 CD assessed as inhibition constant using OMNIMMP as substrate incubated for 30 mins by fluorescence based analysis.
Target sequence in this assay (P08253 whole entry): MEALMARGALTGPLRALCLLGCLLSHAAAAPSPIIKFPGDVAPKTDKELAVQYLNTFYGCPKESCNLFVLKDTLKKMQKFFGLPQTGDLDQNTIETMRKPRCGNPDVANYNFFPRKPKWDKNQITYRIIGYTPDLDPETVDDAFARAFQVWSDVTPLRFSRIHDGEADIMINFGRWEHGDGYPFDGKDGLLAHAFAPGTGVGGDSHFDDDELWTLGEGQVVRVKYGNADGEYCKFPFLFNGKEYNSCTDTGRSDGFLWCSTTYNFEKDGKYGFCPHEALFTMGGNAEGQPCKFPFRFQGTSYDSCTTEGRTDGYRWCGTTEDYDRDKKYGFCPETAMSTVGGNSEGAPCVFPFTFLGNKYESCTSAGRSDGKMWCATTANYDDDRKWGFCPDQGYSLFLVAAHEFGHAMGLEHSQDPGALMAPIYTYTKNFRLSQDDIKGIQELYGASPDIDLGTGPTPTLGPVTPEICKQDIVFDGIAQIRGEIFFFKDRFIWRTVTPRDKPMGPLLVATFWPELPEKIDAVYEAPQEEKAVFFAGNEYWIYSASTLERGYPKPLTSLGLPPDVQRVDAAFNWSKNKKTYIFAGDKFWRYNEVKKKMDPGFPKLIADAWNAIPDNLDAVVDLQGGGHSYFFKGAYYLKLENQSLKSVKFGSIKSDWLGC
Assay [7] in a line: Selectivity ratio of Ki for human recombinant MMP-2 CD to Ki for C-terminal 6His-tagged full length NDM-1 (unknown origin).
Assay [8] in a line: Inhibition of VIM-2 (unknown origin) incubated for 15 mins by absorbance based microplate reader analysis. Also noted: species or system Bacteria.
Assay [9] can be described thus: Inhibition of GIM1 (unknown origin) incubated for 15 mins by absorbance based microplate reader analysis. Also on record: species or system Bacteria.

SMILES strings stand for the structures. A value given as a limit tells only on which side of the number the result lay.

Histone deacetylase 1 (Homo sapiens), sequence (Q13547 whole entry): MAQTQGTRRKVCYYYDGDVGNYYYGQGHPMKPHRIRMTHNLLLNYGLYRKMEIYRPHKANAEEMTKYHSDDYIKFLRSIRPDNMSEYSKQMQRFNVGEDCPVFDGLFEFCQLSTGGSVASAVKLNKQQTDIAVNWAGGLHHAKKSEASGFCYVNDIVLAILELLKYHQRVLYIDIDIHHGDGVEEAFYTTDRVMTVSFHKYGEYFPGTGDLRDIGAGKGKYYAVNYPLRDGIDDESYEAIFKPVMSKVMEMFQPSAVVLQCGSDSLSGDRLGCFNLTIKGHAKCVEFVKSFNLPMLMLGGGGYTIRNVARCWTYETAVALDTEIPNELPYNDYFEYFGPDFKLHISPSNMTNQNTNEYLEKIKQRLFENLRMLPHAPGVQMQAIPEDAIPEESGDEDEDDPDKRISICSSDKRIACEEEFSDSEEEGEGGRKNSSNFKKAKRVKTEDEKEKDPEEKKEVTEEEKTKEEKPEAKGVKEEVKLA
Metallo-beta-lactamase type 2, sequence (C7C422 whole entry): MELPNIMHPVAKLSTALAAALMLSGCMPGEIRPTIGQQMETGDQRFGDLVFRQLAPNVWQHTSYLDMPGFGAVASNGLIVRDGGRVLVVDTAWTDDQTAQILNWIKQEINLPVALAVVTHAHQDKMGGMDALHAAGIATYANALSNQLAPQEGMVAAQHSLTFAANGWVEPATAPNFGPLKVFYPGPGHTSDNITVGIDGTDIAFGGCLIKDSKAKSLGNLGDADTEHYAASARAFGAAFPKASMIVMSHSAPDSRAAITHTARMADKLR

For the compound `O=C(NOCc1ccccc1)c1cccc(C(=O)NOCc2ccccc2)n1`, the 50% inhibitory concentration (IC50) in assay [1] came to 7.2 µM; in [5], 102 µM. In addition, the inhibition in assay [2], in assay [3] and in assay [4] was less than 5% in each case.

Take `O=C(NOCc1ccccc1)c1ccc2cccc(O)c2n1`: the IC50 in [1] was found to be 11.2 µM; in assay [5], 25.2 µM.

In turn, `COC(=O)c1ccc2cccc(NS(C)(=O)=O)c2n1` yielded an IC50 in [1] of 17.6 µM.

On to `O=C(O)c1ccc2c(Br)cc(Br)c(O)c2n1`, for which half-maximal inhibition in [1] (IC50) was put at 0.46 µM.

For the compound `O=C(O)c1ccc2cccc(NS(=O)(=O)c3cccc(Cl)c3)c2n1`, in assay [1], the half-maximal inhibitory concentration (IC50) came out at 0.5 µM. The IC50 values of the last two compounds are within 1.5-fold of each other.

Consider `O=C(O)c1ccc2cccc(NS(=O)(=O)c3cccc4cccnc34)c2n1`, for which 0.83 µM corresponded to half-maximal inhibition in assay [1] (IC50). Moreover, the Ki in assay [6] was determined as 20.7 µM. Moreover, the inhibition in [4] is greater than 90%. The Ratio Ki in assay [7] came out at 50.

Turning to `CON(C)C(=O)c1ccccn1`, the IC50 in assay [1] is greater than 2000 µM.

`Oc1cccc2ccc(-c3ccccc3)nc12`: the IC50 in assay [1] is greater than 1000 µM.

As for `CS(=O)(=O)Nc1cccc2c(Cl)cc(C(=O)O)nc12`, the IC50 in assay [1] turned out to be 1 µM; in [8] it was 0.47 µM; in [9], 21.1 µM; in [5], 8.11 µM. Besides, the inhibition in assay [2] is less than 5%; in assay [3] it was less than 5%; in assay [4], 90%.

With `O=C(O)c1ccc2cccc(O)c2n1`, the IC50 in [1] worked out at 9.1 µM; in assay [8] it was 0.61 µM; in assay [9], 7.38 µM; in [5], 10.3 µM. Also, the inhibition in assay [2], in assay [3] and in [4] was less than 5% in each case.

In turn, `CS(=O)(=O)Nc1cccc2c(-c3cccc(N)c3)cc(C(=O)O)nc12` had an IC50 in [1] of 0.71 µM. In other words, the sub-micromolar range.

With `O=C([O-])CN(CCN(CC(=O)[O-])CC(=O)O)CC(=O)O.[Na+].[Na+]`, the values for the inhibition in assay [2], in assay [3] and in assay [4] were less than 5%, less than 5% and 23%, respectively.

In [1], `CONC(=O)c1ccccn1` displayed an IC50 of 1240 µM.

As to `C[C@H](CS)C(=O)N1CCC[C@H]1C(=O)O`, the inhibition in assay [2], in assay [3] and in [4] was less than 5% in each case.

For the compound `CS(=O)(=O)Nc1ccc(-c2cccc(N)c2)c2ccc(C(=O)O)nc12`, the IC50 in assay [1] came out at 2.1 µM. Moreover, the figures for the inhibition in assay [2], in [3] and in assay [4] were less than 5%, less than 5% and 95%, respectively.

With `O=C(O)c1ccc2cccc(NS(=O)(=O)c3ccccc3)c2n1`, the IC50 in assay [1] turned out to be 0.71 µM; in assay [8], 0.43 µM; in assay [9], 3.07 µM; in assay [5], 1.22 µM. Also, the results for the inhibition in [2], in assay [3] and in assay [4] were less than 5%, less than 5% and greater than 90%, respectively. In assay [6], the Ki is 2.12 µM. Moreover, the Ratio Ki in assay [7] worked out at 6.

`O=C(O)c1cccc(C(=O)NOCc2ccccc2)n1` registered an IC50 in assay [1] of 22.7 µM. That is a double-digit micromolar value.

As for `O=C(O)c1ccc2cccc(NS(=O)(=O)c3cccc([N+](=O)[O-])c3)c2n1`, half-maximal inhibition in assay [1] (IC50) was put at 0.56 µM.

`O=C(O)c1ccc2c(Cl)cc(Cl)c(O)c2n1`: the 50% inhibitory concentration (IC50) worked out at 0.54 µM in assay [1], 0.16 µM in [8], 1.26 µM in [9] and 0.48 µM in [5]. The inhibition in [2] was less than 5%; in assay [3] it was less than 5%; in assay [4], 20%.

In assay [1], `CS(=O)(=O)Nc1ccc(I)c2ccc(C(=O)O)nc12` came in with an IC50 of 1.4 µM. The inhibition was less than 5% in assay [2], less than 5% in [3] and 94% in assay [4].

`O=C(NO)c1cccc(C(=O)NO)n1` displayed a half-maximal inhibitory concentration (IC50) in [1] greater than 1000 µM.

Compound `O=C(O)c1ccc2c(Cl)cc(I)c(O)c2n1` came in with an IC50 in assay [1] of 0.48 µM.

Consider `COC(=O)c1ccc2cccc(NS(=O)(=O)c3cccc(F)c3)c2n1`, for which the midpoint of inhibition in assay [1], the IC50, lay at 1.7 µM.

In assay [1], `O=C(O)c1ccccn1` [2-PICOLINIC ACID] returned an IC50 of 303 µM.

Consider `O=C(O)c1ccc2ccc3c(c2n1)NS(=O)(=O)c1ccc(C(F)(F)F)cc1-3`, for which, in assay [1], 0.41 µM corresponded to half-maximal inhibition (IC50). The inhibition was less than 5% in assay [2], less than 5% in assay [3] and greater than 90% in assay [4]. The Ki in assay [6] came to 27.6 µM. Moreover, the Ratio Ki in assay [7] was determined as 135.

`O=C(O)c1ccc2cccc(NS(=O)(=O)c3ccccc3Cl)c2n1` registered a concentration for half-maximal inhibition (IC50) in assay [1] of 0.44 µM.

As to `COC(=O)c1ccc2cccc(NS(=O)(=O)c3ccc(C(F)(F)F)cc3)c2n1`, the IC50 in assay [1] came to 0.75 µM.

Compound `CS(=O)(=O)Nc1c(Cl)cc(Cl)c2ccc(C(=O)O)nc12` displayed an IC50 in [1] greater than 1000 µM.

In assay [1], `N#Cc1ccccc1S(=O)(=O)Nc1cccc2ccc(C(=O)O)nc12` yielded an IC50 of 0.47 µM.

With `O=C(O)c1cccc(C(=O)O)n1` [DIPICOLINIC ACID], the half-maximal inhibitory concentration (IC50) came out at 7 µM in [1], 0.45 µM in [8], 15.6 µM in [9] and 9.75 µM in [5]. Besides, the inhibition in [2], in [3] and in [4] was less than 5% in each case.

Turning to `CS(=O)(=O)Nc1cc(Cl)c(Cl)c2ccc(C(=O)O)nc12`, the IC50 in assay [1] stood at 0.95 µM; in [8], 0.47 µM; in assay [9] it was 11.2 µM; in [5], 5.23 µM. Further, the inhibition in assay [2] was less than 5%; in assay [3], less than 5%; in [4] it was 91%.

`CONC(=O)c1cccc(C(=O)NOC)n1` had an IC50 in [1] of 84.3 µM.

`O=S(=O)(Nc1cccc2cccnc12)c1cccc(F)c1` showed an IC50 in [1] of 6.2 µM.

`O=C(O)c1ccc2c(I)cc(I)c(NS(=O)(=O)c3ccccc3)c2n1`: the 50% inhibitory concentration (IC50) in [1] is greater than 1000 µM.

On to `O=C(NOCc1ccccc1)c1ccc2c(Br)cc(Br)c(O)c2n1`, for which 1.47 µM corresponded to half-maximal inhibition in assay [1] (IC50).

In the case of `Cc1ccc2cccc(NS(=O)(=O)c3ccccc3)c2n1`, half-maximal inhibition in [1] (IC50) required 1.6 µM. This IC50 and that of the compound before are within 1.5-fold of each other.

In turn, `O=C(O)c1ccc2cccc(NS(=O)(=O)c3c(Cl)cc(Cl)cc3Cl)c2n1` had a concentration for half-maximal inhibition (IC50) in [1] of 0.44 µM.

In assay [1], `O=C(NOCc1ccccc1)c1ccccn1` registered an IC50 of 530 µM.

Turning to `O=C(O)c1ccc2cccc(NS(=O)(=O)C(F)(F)F)c2n1`, in assay [1], the IC50 was found to be 0.9 µM. This IC50 lies about 590-fold lower than the previous one.

`Nc1cccc(-c2cc(C(=O)O)nc3c(NS(=O)(=O)c4ccccn4)cccc23)c1` showed an IC50 in assay [1] of 0.25 µM. Against the preceding compound, the IC50 is about 3.6-fold lower.

With `O=C(O)c1ccc2cccc(NS(=O)(=O)c3ccc(Cl)cc3)c2n1`, in assay [1], the IC50 was determined as 0.45 µM.

In assay [1], `O=C(O)c1ccc2cccc(NS(=O)(=O)Cc3ccccc3)c2n1` returned an IC50 of 1.28 µM.

With `O=C(O)c1ccc2c(I)cc(I)c(O)c2n1`, 0.3 µM corresponded to half-maximal inhibition in assay [1] (IC50). The inhibition in assay [2] is less than 5%; in [3] it was less than 5%; in assay [4] it was 5%.

For the compound `CONC(=O)c1ccc2cccc(O)c2n1`, the half-maximal inhibitory concentration (IC50) in [1] was found to be 13.7 µM.

As for `O=C(O)c1ccc2c(Cl)ccc(NS(=O)(=O)c3ccccn3)c2n1`, the IC50 in [1] amounted to 0.29 µM.

As to `Oc1c(I)cc(I)c2cccnc12` [IODOQUINOL], in assay [1], the IC50 worked out at 2.5 µM.

In [1], `Cc1ccc2cccc(NS(=O)(=O)c3cccc(F)c3)c2n1` displayed an IC50 of 1.4 µM.

Regarding `Cc1ccc2cccc(O)c2n1` [8-HYDROXY QUINALDINE], 274 µM corresponded to half-maximal inhibition in [1] (IC50).

The compound `O=C(O)c1ccc2c(Cl)c(Cl)cc(NS(=O)(=O)c3ccccn3)c2n1` yielded an IC50 in [1] of 0.52 µM.

As to `Cc1ccc(S(=O)(=O)Nc2cccc3ccc(C(=O)O)nc23)cc1`, in assay [1], the IC50 was determined as 1.41 µM.

`O=C(O)c1ccc2cccc(NS(=O)(=O)c3cccc(F)c3)c2n1` displayed an IC50 in assay [1] of 0.68 µM.

Turning to `CONC(=O)c1cccc(C(=O)O)n1`, the IC50 in [1] was 27.8 µM.

Regarding `O=C(O)c1cc(Cl)c2cccc(NS(=O)(=O)c3ccccn3)c2n1`, the IC50 in [1] turned out to be 0.28 µM.

For the compound `O=C(O)c1cc(-c2cccc(F)c2)c2cccc(NS(=O)(=O)c3ccccn3)c2n1`, in assay [1], the IC50 stood at 0.37 µM.

For the compound `O=C(O)c1ccc2cccc(NS(=O)(=O)c3ccc(C(F)(F)F)cc3[N+](=O)[O-])c2n1`, the IC50 in [1] was 0.37 µM; in assay [8] it was 0.38 µM; in assay [9] it was 1.5 µM; in [5], 0.24 µM. Moreover, the inhibition was less than 5% in assay [2], less than 5% in assay [3] and greater than 90% in [4]. Also, the Ki in assay [6] was found to be 0.6 µM. Further, the Ratio Ki in [7] was 3.

Broadly, the IC50 is the concentration needed to halve the response being measured. Low values mean inhibition by little substance, high ones a need for much substance. The term inhibition denotes the percentage by which the read-out fell short of the control. Usually Ki stands for the equilibrium dissociation constant of an inhibitor or competing ligand from its target.
